Laboratory results as given in ChEMBL document CHEMBL2413072, “Synthesis and in vitro anticancer studies of novel C-2 arylidene congeners of lantadenes” (2013).

Columns and labels:
Assay type in all cases: functional
HT-29 [1] = test: Growth inhibition of human HT-29 cells by sulforhodamine B assay
NCI-H226 = test: Growth inhibition of human NCI-H226 cells by sulforhodamine B assay
HL-60(TB) [2] = test: Growth inhibition of human HL-60(TB) cells by sulforhodamine B assay
UACC-257 [3] = test: Growth inhibition of human UACC257 cells assessed as cell growth at 10^-8 M by sulforhodamine B assay; conditions: read-out: Activity
Malme-3M = test: Growth inhibition of human MALME-3M cells assessed as cell growth at 10^-8 M by sulforhodamine B assay; conditions: read-out: Activity
SNB-75 [4] = test: Growth inhibition of human SNB75 cells assessed as cell growth at 10^-8 M by sulforhodamine B assay; conditions: read-out: Activity
HCT-15 [5] = test: Growth inhibition of human HCT15 cells assessed as cell growth at 10^-8 M by sulforhodamine B assay; conditions: read-out: Activity
RPMI-8226 = test: Growth inhibition of human RPMI8226 cells assessed as cell growth at 10^-8 M by sulforhodamine B assay; conditions: read-out: Activity
HL-60(TB) [6] = test: Growth inhibition of human HL-60(TB) cells assessed as cell growth at 10^-8 M by sulforhodamine B assay; conditions: read-out: Activity
MDA-MB-468 [7] = test: Growth inhibition of human MDA-MB-468 cells by sulforhodamine B assay
DU-145 [8] = test: Growth inhibition of human DU145 cells by sulforhodamine B assay
MDA-MB-468 [9] = test: Growth inhibition of human MDA-MB-468 cells assessed as cell growth at 10^-4 M by sulforhodamine B assay; conditions: read-out: Activity
[10] = Growth inhibition of human Hs 578T cells assessed as cell growth at 10^-4 M by sulforhodamine B assay; conditions: read-out: Activity
CAKI-1 = test: Growth inhibition of human CAKI-1 cells assessed as cell growth at 10^-4 M by sulforhodamine B assay; conditions: read-out: Activity
OVCAR-4 = test: Growth inhibition of human OVCAR4 cells assessed as cell growth at 10^-4 M by sulforhodamine B assay; conditions: read-out: Activity
UACC-257 [11] = test: Growth inhibition of human UACC257 cells assessed as cell growth at 10^-4 M by sulforhodamine B assay; conditions: read-out: Activity
SK-MEL-28 = test: Growth inhibition of human SK-MEL-28 cells assessed as cell growth at 10^-4 M by sulforhodamine B assay; conditions: read-out: Activity
SF-539 = test: Growth inhibition of human SF539 cells assessed as cell growth at 10^-4 M by sulforhodamine B assay; conditions: read-out: Activity
SF-295 = test: Growth inhibition of human SF295 cells assessed as cell growth at 10^-4 M by sulforhodamine B assay; conditions: read-out: Activity
NCI-H460 = test: Growth inhibition of human NCI-H460 cells assessed as cell growth at 10^-4 M by sulforhodamine B assay; conditions: read-out: Activity
MOLT-4 = test: Growth inhibition of human MOLT4 cells assessed as cell growth at 10^-4 M by sulforhodamine B assay; conditions: read-out: Activity
HL-60(TB) [12] = test: Growth inhibition of human HL-60(TB) cells assessed as cell growth at 10^-4 M by sulforhodamine B assay; conditions: read-out: Activity
T47D = test: Growth inhibition of human T47D cells assessed as cell growth at 10^-6 M by sulforhodamine B assay; conditions: read-out: Activity
PC-3 = test: Growth inhibition of human PC3 cells assessed as cell growth at 10^-6 M by sulforhodamine B assay; conditions: read-out: Activity
DU-145 [13] = test: Growth inhibition of human DU145 cells assessed as cell growth at 10^-6 M by sulforhodamine B assay; conditions: read-out: Activity
A498 [14] = test: Growth inhibition of human A498 cells assessed as cell growth at 10^-6 M by sulforhodamine B assay; conditions: read-out: Activity
SK-OV-3 [15] = test: Growth inhibition of human SKOV3 cells assessed as cell growth at 10^-6 M by sulforhodamine B assay; conditions: read-out: Activity
SNB-75 [16] = test: Growth inhibition of human SNB75 cells assessed as cell growth at 10^-6 M by sulforhodamine B assay; conditions: read-out: Activity
KM12 = test: Growth inhibition of human KM12 cells assessed as cell growth at 10^-6 M by sulforhodamine B assay; conditions: read-out: Activity
HCT-15 [17] = test: Growth inhibition of human HCT15 cells assessed as cell growth at 10^-6 M by sulforhodamine B assay; conditions: read-out: Activity
SR = test: Growth inhibition of human SR cells assessed as cell growth at 10^-6 M by sulforhodamine B assay; conditions: read-out: Activity
[18] = Growth inhibition of human Hs 578T cells assessed as cell growth at 10^-7 M by sulforhodamine B assay; conditions: read-out: Activity
MCF7 = test: Growth inhibition of human MCF7 cells assessed as cell growth at 10^-7 M by sulforhodamine B assay; conditions: read-out: Activity
ACHN = test: Growth inhibition of human ACHN cells assessed as cell growth at 10^-7 M by sulforhodamine B assay; conditions: read-out: Activity
SK-OV-3 [19] = test: Growth inhibition of human SKOV3 cells assessed as cell growth at 10^-7 M by sulforhodamine B assay; conditions: read-out: Activity
IGROV-1 = test: Growth inhibition of human IGROV1 cells assessed as cell growth at 10^-7 M by sulforhodamine B assay; conditions: read-out: Activity
SW-620 = test: Growth inhibition of human SW620 cells assessed as cell growth at 10^-7 M by sulforhodamine B assay; conditions: read-out: Activity
HT-29 [20] = test: Growth inhibition of human HT-29 cells assessed as cell growth at 10^-7 M by sulforhodamine B assay; conditions: read-out: Activity
COLO 205 = test: Growth inhibition of human COLO205 cells assessed as cell growth at 10^-7 M by sulforhodamine B assay; conditions: read-out: Activity
HOP-62 = test: Growth inhibition of human HOP62 cells assessed as cell growth at 10^-7 M by sulforhodamine B assay; conditions: read-out: Activity
A549 = test: Growth inhibition of human A549/ATCC cells assessed as cell growth at 10^-7 M by sulforhodamine B assay; conditions: read-out: Activity
A498 [21] = test: Growth inhibition of human A498 cells assessed as cell growth at 10^-8 M by sulforhodamine B assay; conditions: read-out: Activity
OVCAR-8 = test: Growth inhibition of human OVCAR8 cells assessed as cell growth at 10^-8 M by sulforhodamine B assay; conditions: read-out: Activity
[22] = read-out: LC50 (the source's name)
[23] = read-out: pLC50 (the source's name) (converted)

## CC1(C)C[C@@H](O)[C@]2(C(=O)O)CC[C@]3(C)C(=CC[C@@H]4[C@@]5(C)C/C(=C\C=C\c6ccccc6)C(=O)C(C)(C)[C@@H]5CC[C@]43C)[C@@H]2C1
HT-29 [1]; read-out: GI50
  GI50: 2.68 µM
HT-29 [1]; read-out: LC50
  LC50 (50% cell kill): 32.9 µM
HT-29 [1]; read-out: TGI
  TGI: 7.37 µM
HT-29 [1]; read-out: pGI50 (converted)
  GI50: 2.69 µM
HT-29 [1]; read-out: pLC50 (converted)
  LC50 (50% cell kill): 33.1 µM
HT-29 [1]; read-out: pTGI (converted)
  TGI: 7.41 µM
NCI-H226; read-out: GI50
  GI50: 2.78 µM
NCI-H226; read-out: LC50
  LC50: 56.2 µM
NCI-H226; read-out: TGI
  TGI: 12.8 µM
NCI-H226; read-out: pGI50 (converted)
  GI50: 2.75 µM
NCI-H226; read-out: pLC50 (converted)
  LC50: 56.2 µM
NCI-H226; read-out: pTGI (converted)
  TGI: 12.9 µM
HL-60(TB) [2]; read-out: GI50
  GI50: 2.92 µM
HL-60(TB) [2]; [22]
  CC50: > 100 µM
HL-60(TB) [2]; read-out: TGI
  TGI: 6.89 µM
HL-60(TB) [2]; read-out: pGI50 (converted)
  GI50: 2.88 µM
HL-60(TB) [2]; [23]
  CC50: > 100 µM
HL-60(TB) [2]; read-out: pTGI (converted)
  TGI: 6.92 µM
UACC-257 [3]
  growth at 0.01 µM: 93%
Malme-3M
  growth at 0.01 µM: 92%
SNB-75 [4]
  growth at 0.01 µM: 89%
HCT-15 [5]
  growth at 0.01 µM: 97%
RPMI-8226
  growth at 0.01 µM: 98%
HL-60(TB) [6]
  growth at 0.01 µM: 101%
MDA-MB-468 [7]; read-out: GI50
  GI50: 3.3 µM
MDA-MB-468 [7]; [22]
  CC50: > 100 µM
MDA-MB-468 [7]; read-out: TGI
  TGI: 12.7 µM
MDA-MB-468 [7]; read-out: pGI50 (converted)
  GI50: 3.31 µM
MDA-MB-468 [7]; [23]
  CC50: 37.2 µM
MDA-MB-468 [7]; read-out: pTGI (converted)
  TGI: 12.6 µM
DU-145 [8]; read-out: GI50
  GI50: 4.23 µM
DU-145 [8]; [22]
  CC50: 41.7 µM
DU-145 [8]; read-out: TGI
  TGI: 14.9 µM
DU-145 [8]; read-out: pGI50 (converted)
  GI50: 4.27 µM
DU-145 [8]; [23]
  CC50: 41.7 µM
DU-145 [8]; read-out: pTGI (converted)
  TGI: 14.8 µM
MDA-MB-468 [9]
  growth at 100 µM: -95%
[10]
  growth at 100 µM: -35%
CAKI-1
  growth at 100 µM: -49%
OVCAR-4
  growth at 100 µM: -97%
UACC-257 [11]
  growth at 100 µM: -88%
SK-MEL-28
  growth at 100 µM: -80%
SF-539
  growth at 100 µM: -90%
SF-295
  growth at 100 µM: -66%
NCI-H460
  growth at 100 µM: -70%
MOLT-4
  growth at 100 µM: -28%
HL-60(TB) [12]
  growth at 100 µM: -40%
T47D
  growth at 1 µM: 97%
PC-3
  growth at 1 µM: 80%
DU-145 [13]
  growth at 1 µM: 101%
A498 [14]
  growth at 1 µM: 80%
SK-OV-3 [15]
  growth at 1 µM: 96%
SNB-75 [16]
  growth at 1 µM: 79%
KM12
  growth at 1 µM: 92%
HCT-15 [17]
  growth at 1 µM: 95%
SR
  growth at 1 µM: 94%
[18]
  growth at 0.1 µM: 92%
MCF7
  growth at 0.1 µM: 92%
ACHN
  growth at 0.1 µM: 98%
SK-OV-3 [19]
  growth at 0.1 µM: 102%
IGROV-1
  growth at 0.1 µM: 112%
SW-620
  growth at 0.1 µM: 97%
HT-29 [20]
  growth at 0.1 µM: 100%
COLO 205
  growth at 0.1 µM: 100%
HOP-62
  growth at 0.1 µM: 91%
A549
  growth at 0.1 µM: 95%
A498 [21]
  growth at 0.01 µM: 82%
OVCAR-8
  growth at 0.01 µM: 95%
